Results published in BindingDB's records for doi:10.1016/j.bmcl.2007.04.096 (University of Michigan, 2007).
Where a SMILES comes first, the peptide text is derived from it. Bridges are numbered along the chain shown (N, C = ends). Triazole bridges read from a SMILES are 1,4-linked. [ ]: non-standard residue; d: D form. ξ: configuration not given here. pY = N[C@@H](Cc1ccc(OP(=O)(O)O)cc1)C(=O)O; Lys(N3) = [N-]=[N+]=NCCCC[C@H](N)C(=O)O; Thr(3ξ) = CC(O)[C@H](N)C(=O)O; Pra = C#CC[C@H](N)C(=O)O

Biological target: T1, Signal transducer and activator of transcription 3 [127-722] (Mus musculus, UniProt P42227)
T1 construct: 127-722
T1 sequence (P42227 127-722): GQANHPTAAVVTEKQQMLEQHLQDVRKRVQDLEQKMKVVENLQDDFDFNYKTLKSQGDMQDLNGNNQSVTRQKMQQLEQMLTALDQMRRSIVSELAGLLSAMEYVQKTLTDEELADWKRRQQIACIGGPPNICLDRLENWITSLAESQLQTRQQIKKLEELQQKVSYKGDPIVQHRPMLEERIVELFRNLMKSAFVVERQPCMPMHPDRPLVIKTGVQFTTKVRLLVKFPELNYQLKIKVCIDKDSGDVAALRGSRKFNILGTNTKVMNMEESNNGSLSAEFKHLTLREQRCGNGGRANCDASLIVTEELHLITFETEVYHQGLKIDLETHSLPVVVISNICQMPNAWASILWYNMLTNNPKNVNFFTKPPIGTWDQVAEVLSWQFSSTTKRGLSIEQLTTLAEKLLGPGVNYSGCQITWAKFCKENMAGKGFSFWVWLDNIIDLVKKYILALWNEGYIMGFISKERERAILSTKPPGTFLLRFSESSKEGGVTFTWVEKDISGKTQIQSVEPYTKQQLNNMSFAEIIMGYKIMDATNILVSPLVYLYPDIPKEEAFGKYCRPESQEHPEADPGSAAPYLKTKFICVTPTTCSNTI
Assay: Fluorescence-Polarization-Based Binding Assay
Details: pH 7.5; 22 °C
From the text: Fluorescence polarization (FP) binding assay is utilizing the intrinsic property of the fluorescent probe, which will have low polarization value when free in solution. On binding to a target, the polarization of the probe will increase.

| SMILES | Ki [µM] |
| --- | --- |
| CC(=O)N[C@@H](Cc1ccc(OP(=O)(O)O)cc1)C(=O)N[C@@H](CC(C)C)C(=O)N[C@H]1CCCCn2cc(nn2)C[C@@H](C(=O)N[C@@H](Cc2ccccc2)C(N)=O)NC(=O)[C@H](C(C)O)NC1=O (stereo partly drawn) [4-[(2S)-2-{[(1S)-1-{[(6S,9S,12S)-12-{[(1S)-1-carbamoyl-2-phenylethyl]carbamoyl}-9-[(1R)-1-hydroxyethyl]-7,10-dioxo-1,8,11,15,16-pentaazabicyclo[12.2.1]heptadeca-14(17),15-dien-6-yl]carbamoyl}-3-methylbutyl]carbamoyl}-2-acetamidoethyl]phenoxyphosphonic acid] (Ac-[pY]L[Lys(N3)][Thr(3ξ)][Pra]F-NH2; triazole 3-5) | 7.3 |
| CC(=O)N[C@@H](Cc1ccc(OP(=O)(O)O)cc1)C(=O)N[C@@H](CC(C)C)C(=O)N[C@@H](CCCCN)C(=O)N[C@H](C(=O)N[C@@H](CCCCN)C(=O)N[C@@H](Cc1ccccc1)C(N)=O)C(C)O (stereo partly drawn) [4-[(2S)-2-{[(1S)-1-{[(1S)-5-amino-1-{[(1S,2R)-1-{[(1S)-5-amino-1-{[(1S)-1-carbamoyl-2-phenylethyl]carbamoyl}pentyl]carbamoyl}-2-hydroxypropyl]carbamoyl}pentyl]carbamoyl}-3-methylbutyl]carbamoyl}-2-acetamidoethyl]phenoxyphosphonic acid] (HELM PEPTIDE1{[ac].[O=C([C@H](Cc1ccc(OP(=O)(O)O)cc1)N[*:1])[*:2]].L.K.[CC(O)[C@H](N[*:1])C(=O)[*:2]].K.F.[am]}$$$$V2.0) | 25.9 |
